Results on 1 molecule are retold here after PMC5589576, “Targeting the apoptotic Mcl-1-PUMA interface with a dual-acting compound” (Oncotarget, 2017).

What is called IC50 is the midpoint of a concentration-inhibition curve. For orientation: Ki means the equilibrium dissociation constant of an inhibitor or competing ligand from its target. Lower therefore signals higher affinity.

Test [1] deals with DLD-1 cells infected with Ad-PUMA. Nature of the test: PUMA-dependent apoptosis of DLD-1 cells infected with Ad-PUMA (Caspase-Glo 3/7). In kind it is cell-based. The note with it: Homo sapiens; DLD-1, Ad-PUMA, 48h; read-out: IC50 (inhibition of PUMA-dependent apoptosis). Here is the method:
Tests of candidate compounds on blocking Synthesis of compound 8
PUMA-dependent apoptosis To a suspension of rhodanine (7.57 mmol) in dry Construction and validation of recombinant ethanol (10 mL), 4-Biphentlaldehyde (11.3 mmol), N-(2-Adenovirus By taking pHBAd-MCMV-GFP (Hanbio) as hydroxyethyl) piperazine (11.3 mmol), and glacial acetic vector, the construction and purification of Adenoviruses acid (0.75 mmol) were added and the resulting mixture overexpressing PUMA and PUMA-∆BH3 (PUMA was further stirred under reflux for 5-6 h. The reaction was without the BH3 domain) were performed according to completed and then cooled in an ice bath. The precipitated former reports. […]
various multiplicity of infection (MOI, 6 points, from 0 The crystal structure of Comp8 was solved by X-ray to 160) in 96-well, white, flat-bottom plates (Nunc). […] Shake gently and record the luminescence of each well on TECAN Infinite M1000 S.Y.Z., H.C., J.N.L and J.Y.L. conceived the project.
Microplate Spectrophotometer. The data were analyzed J.Y.L. and Z.T. designed the experiment. J.Y.L., Z.T., by Graphpad Prism and suitable MOI of Ad-PUMA for N.Z., X.Y.L. and C.Y.L. performed the experiments and following cell infection can be determined in this process. prepared the manuscript. […]
added to make the final compound concentrations range 2. […] The results were detected by flexible docking. […]

Test [2] has as its target T1, Mcl-1H205A (Homo sapiens, UniProt Q07820, H224A).
T1 construct: implied by Ni2+-NTA purification from pET-43.1a(+)); made in house; host or cells: E. coli BL21
Put plainly: FPA competition assay, mutant Mcl-1 H205A. In kind it is binding. Here is the method: 1 protein was induced by 0.6 mM IPTG for 20 h in the Flow cytometry condition of 20°C, 160 rpm. The strains were harvested by centrifugation (6000 rpm, 10 min, 4°C) and broken Tested cells (A2780, MCF-7 and SMMC-7721) by ultrasonication (10 s operation and 10 s stop, 5 min). were plated in 6-well plates (1×10^5 cells/well) and treated […]
All cells were detached by trypsin and washed manufacturer ’s instructions. The purified Mcl-1 was (three times) by precooled PBS. The resuspended cells analyzed by 15% SDS-PAGE and dialyzed against 10 mM were stained by Annexin V-FITC and PI in sequence PBS (pH 7.4) before being stored under −80°C for later use. before being detected by flow cytometry.
FPA competition assays The FITC labelled
BH3 peptide of Mcl-1 (FITC-Mcl-BH3, FITC-AHx-Western blot analysis […]
and used as fluorescence probe in the FPA competition A2780, MCF-7 and SMMC-7721 cells treated with assays. All assays were performed in the assay and without Comp8 were harvested, washed by precooled

T1 sequence (Q07820 172-327 H224A): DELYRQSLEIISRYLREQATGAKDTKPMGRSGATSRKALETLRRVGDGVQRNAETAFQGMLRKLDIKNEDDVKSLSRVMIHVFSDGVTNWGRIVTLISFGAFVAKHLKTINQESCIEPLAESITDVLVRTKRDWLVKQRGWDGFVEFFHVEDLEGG

In the case of `O=C1N=C(N2CCN(CCO)CC2)S/C1=C\c1ccc(-c2ccccc2)cc1` [Comp8], the IC50 in test [1] stood at 38.9 ± 0.91 µM. Further, in test [2], the Ki stood at 1.24 ± 0.35 µM.
